Source: article PMC5923142, “Selection and Characterization of Rupintrivir-Resistant Norwalk Virus Replicon Cells In Vitro” (Antimicrobial Agents and Chemotherapy, 2018)

Test system: recombinant MNV I109V mutant
Test: Antiviral effect against recombinant MNV I109V mutant infection of BV-2 cells (TCID50)
Type: cell-based, murine norovirus
Conditions: MOIs 0.1 and 1
Protocol: BV-2 cells were infected with recombinant WT MNV or the MNV I109V mutant at an MOI of 0.1 or 1 for 1 h in the CO2 incubator at 37°C. After incubation, the supernatant was removed and the cells were washed twice with PBS, and then complete DMEM containing various concentrations of rupintrivir or 2CMC was added to the cells. After 24 h for incubation, the virus titers of the supernatant were determined by measurement of the TCID50. On the basis of the TCID50, the 90% effective concentration (EC90) values of rupintrivir and 2CMC were calculated using XLfit (version 5.3) software.

C[C@@]1(O)[C@H](O)[C@@H](CO)O[C@H]1n1ccc(N)nc1=O [2CMC, 2-C-methylcytidine]
difference in EC90 values between I109V and WT viruses: no significant difference
